According to US7713969B2, “Compositions and methods for treatment of cancer” (ArQule, Inc., priority 2005, dated 2010):

How the values were obtained:
[1] = test system: ERK1/2; assay: ERK1/2 phosphorylation, Western blot (Example 80); assay type: cell-based, human; details: MDA-MB-231 cells, 100 ng/ml HGF/SF 10 minutes
Description: MDA-MB-231 cells were serum-deprived overnight (16 hours) in the absence or in the presence of the indicated concentrations of the separate enantiomers (+)-trans-3-(5,6-dihydro-4H-pyrrolo[3,2,1-ij]quinolin-1-yl)-4(1H-indol-3-yl)pyrrolidine-2,5-dione and (−)-trans-3-(5,6-dihydro-4H-pyrrolo[3,2,1-ij]quinolin-1-yl)-4(1H-indol-3-yl)pyrrolidine-2,5-dione. Cells were treated with 100 ng/ml recombinant human Hepatocyte Growth Factor/Scatter Factor (HGF/SF) (R&D Systems #294-HG) for 10 minutes. Whole cell extracts were prepared in lysis buffer (20 mM Trwas-HC1 pH 7.5, 150 mM NaCl, 1 mM Na2EDTA, 1 mM EGTA, 1% Triton X-100, 2.5 mM sodium pyrophosphate, 1 mM beta-glycerophosphate, 1 mM Na3VO4, 1 μg/ml leupeptin, 1 mM phenylmethylsulfonyl fluoride) and sonicated. Protein concentration was measured by Bradford assay using the BioRad reagent (BioRad, Hercules, Calif.), according to the manufacturer's directions. Samples (50 μg of protein) were resolved by 8% SDS-PAGE under reducing conditions, and transferred onto a PVDF membrane (BioRad). […] Proteins were detected by incubation overnight at 4° C. in TBS-T with 5% milk and either a polyclonal antibody against phosphorylated c-Met (#3121), phosphorylated Erk1/2 (#9101), total Erk1/2 protein (#9102) (Cell Signaling Technology); or a monoclonal antibody against […] (A-5441) (Sigma), which was used as a control for total protein loading. […]

[2] = test system: HT-29; assay: Colony formation assay (CFA); assay type: cell-based; details: Homo sapiens; HT-29, 24 hours exposure, colonies after 14-21 days; read-out: (−)-trans IC50 CFA
Description: (§1) To determine c-met inhibition, exponentially growing MCF-7 and MDA-MB-231 human breast cancer cells, DLD1 and HT29 human colon cancer cells, PACA2 and PANC-1 human pancreatic cancer cells and NCI-H441 human non-small cell lung cancer cells (H441) were serum starved in 0.5% FBS and treated with increasing amounts of (−)-trans-3-(5,6-dihydro-4H-pyrrolo [3,2,1-ij]quinolin-1-yl)-4(1H-indol-3-yl)pyrrolidine-2,5-dione for 24 hours as indicated. Cells were then left unstimulated or stimulated with 100 ng/mL HGF for 10 minutes and whole cell extracts were prepared. Whole cell lysates (50 μg) were resolved by SDS-PAGE, transferred onto a PVDF membrane, and an enhanced chemiluminescence assay system (ECL) was used to determine the phosphorylation status of c-Met. A polyclonal antibody against phospho (Y1349) c-Met (phospho-c-Met) was obtained from Biosource International and a monoclonal antibody against β-actin was purchased from Invitrogen. Percent inhibition was determined by densitometry using the Scion Image For colony formation assays (CFA), exponentially growing cells were seeded at 2,000 cells per well in 6-well plates and allowed to attach for 24 hours. Increasing concentrations of (−)-trans-3-(5,6-dihydro-4H-pyrrolo[3,2,1-ij]quinolin-1-yl)-4(1H-indol-3-yl)pyrrolidine-2,5-dione (from 0.01 to 30 μM) were then added to the media for another 24 hours. After 24 hours exposure, the drug was removed and fresh media was added for the next 14-21 days, allowing for colony formation. Cells were fixed and stained with GEMSA (Gibco BRL). Colonies of greater than 50 cells were scored as survivors and percentage of cell survival was plotted to determine the IC50. […] The IC50 of (−)-trans-3-(5,6-dihydro-4H-pyrrolo[3,2,1-ij]quinolin-1-yl)-4(1H-indol-3-yl) pyrrolidine-2,5-dione for c-Met expressing solid tumor types is in the 0.1-0.7 μM range following exposure to (−)-trans-3-(5,6-dihydro-4H-pyrrolo[3,2,1-ij]quinolin-1-yl)-4(1H-indol-3-yl)pyrrolidine-2,5-dione for 24 hours, as determined by colony formation assay (CFA).

[3] = test system: MCF-7; assay: Colony formation assay (CFA); assay type: cell-based; details: Homo sapiens, MCF7; MCF-7, 24 hours exposure, colonies after 14-21 days; read-out: (−)-trans IC50 CFA
Description: as §1

[4] = test system: MDA-MB-231 human breast cancer xenograft; assay: Breast cancer xenograft model (Example 86); assay type: in vivo, mice
Description: MDA-MB-231 human breast cancer cells were inoculated subcutaneously into female athymic nude mice (8.0×10^6 cells/mouse) and allowed to form palpable tumors. Once the tumors reached approximately 60 mm^3, the animals were treated orally with (−)-trans-3-(5,6-dihydro-4H-pyrrolo[3,2,1-ij]quinolin-1-yl)-4(1H-indol-3-yl)pyrrolidine-2,5-dione at 200 mg/kg or vehicle control daily (5 consecutive days, followed by a 2 day dosing holiday). (−)-trans-3-(5,6-dihydro-4H-pyrrolo[3,2,1-ij]quinolin-1-yl)-4(1H-indol-3-yl)pyrrolidine-2,5-dione was formulated in PEG 400:20% Vitamin E TPGS (60:40). The animals received a total of 20 doses of (−)-trans-3-(5,6-dihydro-4H-pyrrolo[3,2,1-ij]quinolin-1-yl)-4(1H-indol-3-yl)pyrrolidine-2,5-dione or vehicle control. Tumors were measured throughout treatment and the post-treatment observation period. Each point represents the mean±SEM of ten tumors. (See FIG. 10)

[5] = test system: PACA-2 human pancreatic cancer xenograft; assay: Pancreatic cancer xenograft model (Example 88); assay type: in vivo, mice; details: for optimal tumor growth inhibition: daily 5 days on/2 off, 20 doses
Description: PACA-2 human pancreatic cancer cells were inoculated subcutaneously into female athymic nude mice (5×10^6 cells/mouse) and allowed to form palpable tumors. Once the tumors reached approximately 60 mm^3, the animals were treated orally with (−)-trans-3-(5,6-dihydro-4H-pyrrolo[3,2,1-ij]quinolin-1-yl)-4(1H-indol-3-yl) pyrrolidine-2,5-dione at 200 mg/kg or 300 mg/kg or vehicle control daily (5 consecutive days, followed by a 2 day dosing holiday). (−)-trans-3-(5,6-dihydro-4H-pyrrolo[3,2,1-ij]quinolin-1-yl)-4(1H-indol-3-yl)pyrrolidine-2,5-dione was formulated in PEG 400:20% Vitamin E TPGS (60:40). The animals received a total of 20 doses of (−)-trans-3-(5,6-dihydro-4H-pyrrolo[3,2,1-ij]quinolin-1-yl)-4(1H-indol-3-yl)pyrrolidine-2,5-dione or vehicle control. Tumors were measured throughout treatment and the post-treatment observation period. Each point represents the mean±SEM of ten tumors. (See FIG. 12)

IC50 [2]: 200 nM | IC50 [3]: 400 nM
SMILES: O=C1NC(=O)C(c2cn3c4c(cccc24)CCC3)C1c1c[nH]c2ccccc12 (single isomer, unassigned; (-))
phosphorylation of ERK1/2 [1]: decreases the phosphorylation of ERK1/2 | change in body weight ([4]; 200 mg/kg oral administration): no significant change in body weight | Tumor growth inhibition ([4]; 200 mg/kg orally, daily 5 days on/2 off, 20 doses): 79% | change in body weight ([5]; 200 mg/kg and 300 mg/kg oral administration): no significant change in body weight | optimal tumor growth inhibition ([5]; 200 mg/kg orally): 58% | optimal tumor growth inhibition ([5]; 300 mg/kg orally): 60%
